# Source: patent US9957236B2, “Selective inhibitors interfering with fibroblast growth factor receptor and FRS2 interaction for the prevention and treatment of cancer and other diseases” (LIMITED LIABILITY COMPANY “RUSSIAN PHARMACEUTICAL …, priority 2014, dated 2018)
# Tests used:
# [1] = tested on: angiogenesis stimulated by bFGF; assay: Matrigel implant angiogenesis stimulated by bFGF; assay type: in vivo, mice
# Protocol: Eighteen hybrid mice of the 1 generation F1 (C57B1/6×DBA/2), males with a weight of 22-30 g are used in the research. The mice (nomenclature number M02.13.00011) were received from a branch of nursery “Stolbovaya”. The method described earlier was used in the experiment [Passaniti A., 1992]. The control and experiment groups had at least 3 mice. Aliquots (1,000 mcl) of Matrigel (BD Biosciences) containing heparin 60 conventional units/ml, VEGF (200 ng/ml, BD Biosciences) or bFGF (100 ng/ml, BD Biosciences) were prepared on ice. Matrigel containing heparin 60 conventional units/ml was used as negative control. Matrigel was injected in the mice subcutaneously into the side part of the back. After injection, Matrigel quickly forms single, hard gel-like implant. A weight of the inhibitor was dissolved in DMSO to concentration of 10^−2M. Aliquots were frozen down to −20° C. and unfrozen immediately before injection. Refreezing of the solution was not allowed. The tested and standard objects were administered intraperitoneally on the 0, 3 and 6 day of Matrigel impintation: Bevacizumab in a dose of 10 mg/kg and RPT835-15 mg/kg. Seven days after administration of Matrigel, the mice were put into sleep with diethyl ether to remove the implant. The implants were fixed for 24-36 hours in 10% neutral formalin and enclosed in paraffin for further histological research.
# [2] = tested on: SKOV3 ovarian cancer cells; assay: Crystal Violet proliferation assay, SKOV3; assay type: cell-based; details: SKOV3, low FGFR2 expression; bFGF 100 ng/ml, 7 days
# Excerpt: (§1) This research used additional cell lines: SKOV3 (ovarian cancer, ATCC # HTB-77), HS578T (breast cancer, ATCC # HTB-126), T47D (breast cancer, ATCC #HTB-1336), modified line of non-small cells lung cancer A549, line of metastatic melanoma of skin Mel Kor (RF Patent No. 2287578), and additional study of antiangiogenic activity—cell line SVEC-4-10 (endothelial cells, ATCC #CRL-2181).
# (§2) The cells were cultivated in environment RPMI-1640 (PANECO) (SKOV3, HS578T, T47D, Mel-Kor) or DMEM (PANECO) (SVEC-4-10) containing 10% of embryonal serum cattle (FCS, HyClone), 2 mM glutamine (PANECO), antibiotics (100 IU/mL penicillin and […] streptomycin (all PANECO)) at 37° C. and 5% CO2. Cells at 70-80% monolayer were used for the experiments.
# (§3) The cells were planted in low density (30 t of cells/ml) in triplets on a 96-cavity plate in an environment containing 0.1% of FCS serum. […] Growth of cells was determined by the modified “Crystal Violet mitogenic method” for 7 days after the experiment start. […] The dye was dissolved in ethanol and measured on a spectrophotometer at 540-560 nm. The curve of cell proliferative activity inhibition was built by the dependence of the percent of the cell quantity (Y axis) on concentration of inhibitor RPT835 in the cavity of the plate (X axis). […]
# [3] = tested on: SUM-52 cells; assay: Proliferation of SUM-52 cells expressing FGFR2 IIIb; assay type: cell-based, human; details: SUM-52 (FGFR2 IIIb), RPT835 1 micron, FGF-1 100 ng/ml
# Protocol: (§4) The research assessed the influence of inhibitor RPT835 determined by formula II of this invention, intervention with interaction of FGFR2 represented by two most frequent isoforms IIIb and IIIc with FRS2. For this, human cell line of embryonal osteoblasts (hFOB) expressing only FGFR2 […], and human cell line of breast cancer SUM-52 expressing FGFR2 IIIb (all main versions of isoform—C1, C2, C3) were chosen.
# (§5) Cells were divided into the groups: • 1a) hFOB • 1b) hFOB, stimulating FGF-1 (100 ng/ml) • 1c) hFOB, cultivation with RPT835 (1 micron) and stimulation of FGF-1 (100 ng/ml) • 2a) SUM-52 • 2b) SUM-52, stimulation of FGF-1 (100 ng/ml) • 2c) SUM-52, cultivation with RPT835 (1 micron) and stimulation of FGF-1 (100 ng/ml)
# [4] = tested on: human ovarian cancer SKOV-3; assay: Pathomorphosis of SKOV-3 ovarian tumor in nude mice; assay type: in vivo; details: SKOV-3 in nude mice
# Protocol: Immunodefficient mice (Nude, age of the mice as of the treatment start is 8 weeks; nursery “Pushchino”) were subcutaneously inoculated cells of FGFR2 of expressing line of human ovarian cancer SKOV-3. When the average tumor volume of 200 mm3 was achieved, the mice were randomized into the groups of control (standard chemotherapy with paclitaxel and caroplatin) and treatment (inhibitor RPT835). There were 10 mice in each group. Inhibitor RPT835 was assigned in a dose of 50 mg/kg, daily. The tumor volume was measured twice a week. When the tumor volume reached 2,000 mm3, the mice were subjected to euthanasia. Pathomorphosis of the tumor tissue was studied.
# [5] = tested on: HS578T breast cancer cells; assay: Crystal Violet proliferation assay, HS578T; assay type: cell-based; details: low FGFR2 expression, bFGF 100 ng/ml, 7 days
# Excerpt: as §1, §2, §3
# [6] = reaction of immune complexes, general anaphylaxis, degranulation of mast cells, conjuctival test
# [7] = tested on: hFOB cells; assay: Proliferation of hFOB cells expressing FGFR2 IIIc; assay type: cell-based, human; details: RPT835 1 micron, FGF-1 100 ng/ml
# Protocol: as §4, §5
# [8] = tested on: modified line of non-small cells lung cancer A549; assay: Crystal Violet proliferation assay, modified A549; assay type: cell-based; details: Homo sapiens; modified A549 with pronounced expression of FGFR2
# Excerpt: as §1, §2, §3
# [9] = tested on: T47D breast cancer cells; assay: Crystal Violet proliferation assay, T47D; assay type: cell-based; details: hardly expressed FGFR2, bFGF 100 ng/ml, 7 days
# Excerpt: as §1, §2, §3
# [10] = tested on: SVEC-4-10 endothelial cells; assay: Crystal Violet proliferation assay, SVEC-4-10; assay type: cell-based; details: SVEC-4-10, strongly expresses FGFR2; bFGF 100 ng/ml, 7 days
# Excerpt: as §1, §2, §3
# [11] = Matrigel + bFGF, 15 mg/kg intraperitoneally day 0, 3, 6, p<0.001
compound,measurement,setting,value
"Cc1cc([N+](=O)[O-])c(NS(=O)(=O)c2cccc(C(=O)O)c2)cc1-c1cccnc1 [RPT835, 3-(N-(4-methyl-2-nitro-5-(pyridin-3-yl)phenyl)sulfamoyl)benzoic acid]",decrease of number of functional micro-vessels compared to the control group,[1]; [11],more than 2 fold
same,decrease of number of migrated cells compared to the control group,[1]; [11],more than 2 fold
same,decrease of number of tubular structures compared to the control group,"[1]; Matrigel + bFGF, 15 mg/kg intraperitoneally day 0, 3, 6, p=0.016",more than 2 fold
same,angiogenesis stimulated by bFGF,"[1]; Matrigel implants in mice, intraperitoneally day 0, 3, 6, RPT835 15 mg/kg, Bevacizumab 10 mg/kg",effectively inhibited
same,inhibition of proliferative activity,[2],moderate effect
same,proliferation of cells,[3],reliably suppressed proliferation
same,part of the tumor represented by massive necroses,[4]; 50 mg/kg daily,over 75%
same,pathomorphosis of the tumor tissue,"[4]; RPT835 50 mg/kg daily, control standard chemotherapy with paclitaxel and caroplatin",Pronounced therapeutic pathomorphosis
same,inhibition of proliferative activity,[5],moderate effect
same,allergic properties,[6],does not show any allergic properties
same,proliferation of cells,[7],reliably suppressed proliferation
same,IC50,[8],0.01 µM
same,inhibition of proliferative activity,[9],did not block
same,inhibition of proliferative activity,[10],maximum inhibiting effect
